From US20140328809A1, “METHODS OF INDUCING CHONDROGENESIS IN MESENCHYMAL STEM CELLS USING SYNTHETIC TRITERPENOIDS” (TRUSTEES OF DARTMOUTH COLLEGE, priority 2011, published 2014)

Key:
Col II alpha1 = assay: Quantitative RT-PCR analysis on calvaria: Col II alpha1; format: cell-based, mouse; conditions: 7 days of culture, normalized to control = 1.00
Procedure: (§1) All chemicals were from Sigma-Aldrich. Primers for RT-PCR were from Applied Biosystems. The isolation of calvaria was essentially performed as described previously (Garrett, 2003; Garret et al., 2003). The calvaria were cultured in Biggers, Gwatkins, Judah medium supplemented with 1 mg/mL of bovine serum albumin (Cohn fraction V), 100 U/mL each of penicillin/streptomycin, and 0.292 mg/mL of glutaimine. On Day 1, the calvaria were treated with CDDO-Im or CDDO-EA. On Day 4, the medium was replaced with fresh medium, again containing either CDDO-Im or CDDO-EA. On Day 7, the calvaria were collected and either stored at −80° C. for further RNA analysis or fixed in 10% buffered formalin for 24 h and transferred to 80% ethanol for histological analysis.
(§2) After 7 days of culture, RNA was isolated from the calvaria and quantitative RT-PCR analysis was performed for more than 15 different markers including: SOX9 (a transcription factor specific for cartilage), collagen type II (alpha 1), all three isoforms of TGF-β, BMPs 2 and 4, BMP receptor II, Smads 3, 4, 6, and 7, tissue inhibitors of metalloproteinases (TIMP-1 and TIMP-2), and matrix metalloproteinase-9 (MMP-9). […] Both triterpenoids are strong inhibitors of the expression of MMP-9; CDDO-EA (200 nM), caused almost 80% inhibition of the expression of this metalloproteinase, which is known to be involved in the degradation of cartilage (Shinoda et al., 2008).

TGF-β3 = assay: Quantitative RT-PCR analysis on calvaria: TGF-β3; format: cell-based, mouse; conditions: 7 days of culture, normalized to control = 1.00
Procedure: as §1, §2

TGF-β1 = assay: Quantitative RT-PCR analysis on calvaria: TGF-β1; format: cell-based, mouse; conditions: 7 days of culture, normalized to control = 1.00
Procedure: as §1, §2

BMP-4 = assay: Quantitative RT-PCR analysis on calvaria: BMP-4; format: cell-based, mouse; conditions: 7 days of culture, normalized to control = 1.00
Procedure: as §1, §2

BMPRII = assay: Quantitative RT-PCR analysis on calvaria: BMPRII; format: cell-based, mouse; conditions: 7 days of culture, normalized to control = 1.00
Procedure: as §1, §2

COL2A1 = assay: Western blot of chondrocyte marker COL2A1 in bone marrow-derived MSCs; format: cell-based, human; conditions: 100 nM for 7 days; MSCs in chondrogenic culture medium; not detectable in control
Procedure: (§3) Human bone marrow-derived stromal cells (ScienCell Research Laboratories), which contain a population of responsive mesenchymal stem cells, were grown in mesenchymal stem cell medium (ScienCell Research Laboratories). MSCs were serum-starved 24 hours prior to all experimental conditions. The synthesis of the synthetic triterpenoids, CDDO-Im and CDDO-EA, have been previously described (Sporn et al., 2011).
(§4) For directed chondrocytic differentiation, MSCs were grown in StemPro chondrogenic culture medium (Invitrogen) prepared by the technique of Kassem (2004), which is incorporated herein by reference. See also Medici et al. (2010), which is also incorporated herein by reference. CDDO-Im and CDDO-EA were added to the cultures at a concentration of 100 nM for 7 days. Western blot analysis was performed using the following antibodies at concentrations (and using protocols) recommended by the respective manufacturers: SOX9, COL2A1 (Santa Cruz Biotechnology), Aggrecan (Abcam), β-actin (Sigma-Aldrich). β-actin was used as a loading control. HRP-conjugated IgG TrueBlot reagents (eBioscience) were used at a dilution of 1:1000.

SOX-9 = assay: Quantitative RT-PCR analysis on calvaria: SOX-9; format: cell-based, mouse; conditions: 7 days of culture, normalized to control = 1.00
Procedure: as §1, §2

Aggrecan = assay: Western blot of chondrocyte marker Aggrecan in bone marrow-derived MSCs; format: cell-based, human; conditions: 100 nM for 7 days; MSCs in chondrogenic culture medium; not detectable in control
Procedure: as §3, §4

Smad6 = assay: Quantitative RT-PCR analysis on calvaria: Smad6; format: cell-based, mouse; conditions: 7 days of culture, normalized to control = 1.00
Procedure: as §1, §2

Smad4 = assay: Quantitative RT-PCR analysis on calvaria: Smad4; format: cell-based, mouse; conditions: 7 days of culture, normalized to control = 1.00
Procedure: as §1, §2

MMP-9 = assay: Quantitative RT-PCR analysis on calvaria: MMP-9; format: cell-based, mouse; conditions: 7 days of culture, normalized to control = 1.00
Procedure: as §1, §2

TIMP-2 = assay: Quantitative RT-PCR analysis on calvaria: TIMP-2; format: cell-based, mouse; conditions: 7 days of culture, normalized to control = 1.00
Procedure: as §1, §2

BMP-2 = assay: Quantitative RT-PCR analysis on calvaria: BMP-2; format: cell-based, mouse; conditions: 7 days of culture, normalized to control = 1.00
Procedure: as §1, §2

Smad7 = assay: Quantitative RT-PCR analysis on calvaria: Smad7; format: cell-based, mouse; conditions: 7 days of culture, normalized to control = 1.00
Procedure: as §1, §2

TGF-β2 = assay: Quantitative RT-PCR analysis on calvaria: TGF-β2; format: cell-based, mouse; conditions: 7 days of culture, normalized to control = 1.00
Procedure: as §1, §2

Smad3 = assay: Quantitative RT-PCR analysis on calvaria: Smad3; format: cell-based, mouse; conditions: 7 days of culture, normalized to control = 1.00
Procedure: as §1, §2

TIMP-1 = assay: Quantitative RT-PCR analysis on calvaria: TIMP-1; format: cell-based, mouse; conditions: 7 days of culture, normalized to control = 1.00
Procedure: as §1, §2

SOX9 = assay: Western blot of chondrocyte marker SOX9 in bone marrow-derived MSCs; format: cell-based, human; conditions: 100 nM for 7 days; MSCs in chondrogenic culture medium; not detectable in control
Procedure: as §3, §4

[1] = tested on: collagen type II (COL2A1); assay: Immunohistochemical analysis of collagen type II in calvaria; format: cell-based, mouse; conditions: 200 nM, FIG. 1b
Procedure: as §1
(§5) After fixation for 24 h, the calvaria were decalcified in EDTA, embedded in paraffin, and cut into 4 μm sections. The sections were stained either with modified hematoxylin and eosin or with toluidine blue (1% in 70% ethanol for 20 min, followed by destaining in 70%, 90%, and 100% ethanol for 15 seconds), placed in xylene twice, and then mounted (Garret, 2003). Procedures for immunofluroescence were performed essentially as previously described (Medici et al., 2010). […]

newborn mouse calvaria = assay: Histological analysis (toluidine blue) of chondrogenesis in newborn mouse calvarial organ cultures; format: cell-based; conditions: 200 nM, 7 days, FIG. 1a, at least 3 sets of replicate experiments
Procedure: as §1, §5

CC1(C)CC[C@]2(C(=O)n3ccnc3)CC[C@]3(C)[C@H](C(=O)C=C4[C@@]5(C)C=C(C#N)C(=O)C(C)(C)[C@@H]5CC[C@]43C)[C@@H]2C1 [CDDO-Im, CDDO-Imidazolide]
Col II alpha1 expression (quantitative RT-PCR) (Col II alpha1; 50 nM): 1.45 ± 0.09 | Col II alpha1 expression (quantitative RT-PCR) (Col II alpha1; 200 nM): 1.32 ± 0.23 | Col II alpha1 expression (quantitative RT-PCR) (Col II alpha1; 500 nM): 1.72 ± 0.39 | TGF-β3 expression (quantitative RT-PCR) (TGF-β3; 50 nM): 1.30 ± 0.07 | TGF-β3 expression (quantitative RT-PCR) (TGF-β3; 200 nM): 1.52 ± 0.16 | TGF-β3 expression (quantitative RT-PCR) (TGF-β3; 500 nM): 1.66 ± 0.13 | TGF-β1 expression (quantitative RT-PCR) (TGF-β1; 50 nM): 0.96 ± 0.07 | TGF-β1 expression (quantitative RT-PCR) (TGF-β1; 200 nM): 1.08 ± 0.12 | TGF-β1 expression (quantitative RT-PCR) (TGF-β1; 500 nM): 1.46 ± 0.12 | BMP-4 expression (quantitative RT-PCR) (BMP-4; 50 nM): 0.97 ± 0.05 | BMP-4 expression (quantitative RT-PCR) (BMP-4; 200 nM): 0.98 ± 0.06 | BMP-4 expression (quantitative RT-PCR) (BMP-4; 500 nM): 1.35 ± 0.22 | BMPRII expression (quantitative RT-PCR) (BMPRII; 50 nM): 1.09 ± 0.06 | BMPRII expression (quantitative RT-PCR) (BMPRII; 200 nM): 1.22 ± 0.11 | BMPRII expression (quantitative RT-PCR) (BMPRII; 500 nM): 1.46 ± 0.14 | induction of COL2A1 (Western blot) (COL2A1): clear induction | SOX-9 expression (quantitative RT-PCR) (SOX-9; 50 nM): 1.26 ± 0.08 | SOX-9 expression (quantitative RT-PCR) (SOX-9; 200 nM): 1.33 ± 0.05 | SOX-9 expression (quantitative RT-PCR) (SOX-9; 500 nM): 1.83 ± 0.13 | induction of Aggrecan (Western blot) (Aggrecan): clear induction | Smad6 expression (quantitative RT-PCR) (Smad6; 50 nM): 0.95 ± 0.05 | Smad6 expression (quantitative RT-PCR) (Smad6; 200 nM): 1.23 ± 0.14 | Smad6 expression (quantitative RT-PCR) (Smad6; 500 nM): 1.77 ± 0.19 | Smad4 expression (quantitative RT-PCR) (Smad4; 50 nM): 0.96 ± 0.06 | Smad4 expression (quantitative RT-PCR) (Smad4; 200 nM): 1.03 ± 0.09 | Smad4 expression (quantitative RT-PCR) (Smad4; 500 nM): 1.26 ± 0.09 | MMP-9 expression (quantitative RT-PCR) (MMP-9; 50 nM): 0.73 ± 0.16 | MMP-9 expression (quantitative RT-PCR) (MMP-9; 200 nM): 0.44 ± 0.12 | MMP-9 expression (quantitative RT-PCR) (MMP-9; 500 nM): 0.26 ± 0.03 | TIMP-2 expression (quantitative RT-PCR) (TIMP-2; 50 nM): 1.24 ± 0.10 | TIMP-2 expression (quantitative RT-PCR) (TIMP-2; 200 nM): 1.67 ± 0.19 | TIMP-2 expression (quantitative RT-PCR) (TIMP-2; 500 nM): 2.62 ± 0.29 | BMP-2 expression (quantitative RT-PCR) (BMP-2; 50 nM): 1.17 ± 0.07 | BMP-2 expression (quantitative RT-PCR) (BMP-2; 200 nM): 1.60 ± 0.19 | BMP-2 expression (quantitative RT-PCR) (BMP-2; 500 nM): 3.14 ± 0.53 | Smad7 expression (quantitative RT-PCR) (Smad7; 50 nM): 1.05 ± 0.07 | Smad7 expression (quantitative RT-PCR) (Smad7; 200 nM): 1.32 ± 0.14 | Smad7 expression (quantitative RT-PCR) (Smad7; 500 nM): 1.78 ± 0.18 | TGF-β2 expression (quantitative RT-PCR) (TGF-β2; 50 nM): 1.17 ± 0.05 | TGF-β2 expression (quantitative RT-PCR) (TGF-β2; 200 nM): 1.15 ± 0.09 | TGF-β2 expression (quantitative RT-PCR) (TGF-β2; 500 nM): 1.17 ± 0.10 | Smad3 expression (quantitative RT-PCR) (Smad3; 50 nM): 0.97 ± 0.07 | Smad3 expression (quantitative RT-PCR) (Smad3; 200 nM): 0.90 ± 0.05 | Smad3 expression (quantitative RT-PCR) (Smad3; 500 nM): 1.35 ± 0.19 | TIMP-1 expression (quantitative RT-PCR) (TIMP-1; 50 nM): 1.43 ± 0.19 | TIMP-1 expression (quantitative RT-PCR) (TIMP-1; 200 nM): 1.83 ± 0.18 | TIMP-1 expression (quantitative RT-PCR) (TIMP-1; 500 nM): 3.00 ± 0.65 | induction of SOX9 (Western blot) (SOX9): clear induction | formation of collagen type II (COL2A1), red fluorescence [1]: induce the formation of collagen type II | induction of chondrogenesis (metachromatic toluidine blue purple staining, proteoglycans) (newborn mouse calvaria): marked ability to induce chondrogenesis
